From patent US11981643B1, “Oxoimidazolidine derivatives as anti-tubercular agents” (priority 2023, dated 2024)
In brackets after ≈: the same amount, converted by molar mass.

Test system: MDR strain of MTB
Assay: microbe, parasite or virus in culture
Format: cell-based
Conditions: Mycobacterium tuberculosis, 192 h, read-out: Anti-tubercular activity against Mycobacterium tuberculosis, MDR (minimum inhibitory concentration, MIC)

Structure (SMILES) | MIC [µg/mL]
CN1C(=Cc2ccc([N+](=O)[O-])cc2)C(=O)N/C1=N\C(=S)Nc1cccc(Cl)c1 (stereo in doubt) [Compound 4q, 1-(3-Chlorophenyl)-3-[(2E,5Z)-1-methyl-5-(4-nitrobenzylidene)-4-oxoimidazolidin-2-ylidene]thiourea] | 32 (≈ 76.9 µM)
CN1/C(=C\c2ccc(Br)o2)C(=O)N/C1=N\C(=O)Nc1cccc(F)c1 [Compound 4g, 1-{(2E,5Z)-5-[(5-Bromofuran-2-yl)methylidene]-1-methyl-4-oxoimidazolidin-2-ylidene}-3-(3-fluorophenyl)urea] | 32 (≈ 78.6 µM)
CN1C(=Cc2ccc(-c3ccccc3[N+](=O)[O-])o2)C(=O)N/C1=N\C(=S)Nc1ccc(F)cc1 (stereo in doubt) [Compound 4v, 1-(4-Fluorophenyl)-3-[(2E,5Z)-1-methyl-5-{[5-(2-nitrophenyl)furan-2-yl]methylidene}-4-oxoimidazolidin-2-ylidene]thiourea] | > 32
